Measurements reported in US10913750B2, “Tubulin-binding compounds, compositions and uses related thereto” (The Regents of the University of California, priority 2015, dated 2021).

What was measured:
tubulin = biological target: T1, tubulin (Sus scrofa, UniProt P02554); experiment: In vitro tubulin polymerization assay (HTS-tubulin polymerization kit, Cytoskeleton); assay type: biochemical; settings: 3 μM compound, fluorescence, 70 minutes at 37° C.
T1 construct: purchased Cytoskeleton Inc. BK011P
T1 sequence (P02554 whole entry): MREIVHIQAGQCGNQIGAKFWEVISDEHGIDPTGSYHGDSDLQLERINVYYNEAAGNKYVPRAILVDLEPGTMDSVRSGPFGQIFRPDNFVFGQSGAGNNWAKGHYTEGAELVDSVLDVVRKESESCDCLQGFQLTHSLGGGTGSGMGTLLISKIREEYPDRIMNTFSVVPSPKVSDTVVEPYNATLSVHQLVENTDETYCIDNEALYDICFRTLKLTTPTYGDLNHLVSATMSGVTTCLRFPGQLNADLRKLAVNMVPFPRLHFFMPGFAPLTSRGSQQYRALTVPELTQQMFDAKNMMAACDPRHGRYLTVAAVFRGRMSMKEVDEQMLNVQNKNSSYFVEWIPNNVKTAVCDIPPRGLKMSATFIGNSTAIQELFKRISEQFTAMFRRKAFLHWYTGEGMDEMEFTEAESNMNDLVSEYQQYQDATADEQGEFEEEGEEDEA
T1 sequence (P02550 whole entry partner): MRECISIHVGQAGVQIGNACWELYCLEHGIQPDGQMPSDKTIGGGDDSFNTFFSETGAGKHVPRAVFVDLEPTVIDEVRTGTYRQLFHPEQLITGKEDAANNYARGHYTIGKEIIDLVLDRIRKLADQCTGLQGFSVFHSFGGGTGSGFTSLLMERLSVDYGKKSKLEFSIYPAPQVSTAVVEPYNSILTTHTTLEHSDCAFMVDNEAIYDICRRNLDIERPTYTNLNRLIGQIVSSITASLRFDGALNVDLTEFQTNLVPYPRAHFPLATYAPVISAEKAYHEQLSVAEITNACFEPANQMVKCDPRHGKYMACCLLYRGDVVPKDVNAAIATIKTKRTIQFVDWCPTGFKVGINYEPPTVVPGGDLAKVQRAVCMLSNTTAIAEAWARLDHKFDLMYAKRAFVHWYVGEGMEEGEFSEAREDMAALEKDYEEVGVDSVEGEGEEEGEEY
Experimental: 1.5 ul of 10× strength compound, 20 μl of tubulin solution and Triton X-100 at a final concentration of 0.01% were added to each well in a 384 well plate. The reactions were assembled on ice to prevent tubulin pre-polymerization. For kinetic measurements, microtubule polymerization was monitored by reading the fluorescence at 420 nm (due to the incorporation of a fluorescent reporter into microtubules as polymerization occurs) every ten seconds using a Tecan M1000 microplate reader (FIG. 6B). […] Fluorescence increased as polymerization occurred, due to the incorporation of 4′,6-diamidino-2-phenylindole. Fluorescence was monitored every minute for 70 minutes at 37° C.
Tubulin polymerization reactions were carried out according to the manufacturer (Cytoskeleton, BK011P) in the presence of 3 μM colchicine, MI-181, taxol or DMSO. Polymerization was monitored with a Tecan M1000 micro-plate reader at 420 nm for 70 minutes at 37° C. The results are depicted in FIG. 11.

M397 = experiment: CellTiter-Glo cell viability, M397; assay type: cell-based
Experimental: (§1) To determine if MI-181 had broad anti-cancer activity, we treated a diverse panel of cancer cell lines including cervical adenocarcinoma (HeLa), breast adenocarcinoma (MCF7), melanoma (M233), osteosarcoma (U205), acute lymphoblastic leukemia (CCRF-CEM), non-small cell lung carcinoma (NCI-H460), and breast adenocarcinoma (MCF7) with MI-181 and determined its cell viability IC50 (FIGS. 13A and 13B). […] Therefore, the efficacy of MI-181 was analyzed in a panel of melanoma cell lines with defined genetic backgrounds including BRAF^V600E and NRAS^Q61L mutations and varied sensitivities to Vemurafenib (BRAF inhibitor) and Trametinib (MEK inhibitor), which are currently used to treat BRAF^V600E melanomas^43,44 (FIG. 10c). […] As a general trend BRAF^V600E cell lines were slightly more sensitive than NRAS^Q61L cell lines and MI-181 was effective in Vemurafenib and Trametinib resistant cell lines (FIG. 10c and Table 3). Finally, we tested the ability of MI-181 to inhibit melanoma colony formation using the M233 and M308 cell lines (both resistant to Vemurafenib). Indeed, MI-181 was a potent inhibitor of colony formation (percentage colony formation for 10 nM MI-181=0.2±0.1 and 0.8±0.7; for 10 nM colchicine=0.1±0.06 and 1.5±0.5; and for 10 nM Vemurafenib=94±7 and 102±5) (FIG. 10d). Thus, MI-181 is a potent inhibitor of melanoma cell lines. […]

M395 = experiment: CellTiter-Glo cell viability, M395; assay type: cell-based
Experimental: as §1

M243 = experiment: CellTiter-Glo cell viability, M243; assay type: cell-based
Experimental: as §1

M308 = experiment: CellTiter-Glo cell viability, M308; assay type: cell-based
Experimental: as §1

M229 = experiment: CellTiter-Glo cell viability, M229; assay type: cell-based
Experimental: as §1

M296 = experiment: CellTiter-Glo cell viability, M296; assay type: cell-based
Experimental: as §1

M409 = experiment: CellTiter-Glo cell viability, M409; assay type: cell-based
Experimental: as §1

M230 = experiment: CellTiter-Glo cell viability, M230; assay type: cell-based
Experimental: as §1

M375 = experiment: CellTiter-Glo cell viability, M375; assay type: cell-based
Experimental: as §1

[1] = tested on: diverse panel of cancer cell lines; experiment: Cell viability in a diverse panel of cancer cell lines; assay type: cell-based; settings: HeLa, M233, U205, CCRF-CEM, NCI-H460; MCF7 excepted; read-out: cell viability IC50 across most cancer cell lines
Experimental: as §1

[2] = tested on: panel of melanoma cell lines; experiment: Cell viability in a panel of melanoma cell lines; assay type: cell-based; settings: melanoma cell lines incl. BRAF V600E and NRAS Q61L mutations; read-out: IC50 across melanoma panel
Experimental: as §1

M233 = experiment: Melanoma colony formation, M233; assay type: cell-based; settings: 10 nM, M233 (first value of pair)
Experimental: To determine if MI-181 had broad anti-cancer activity, we treated a diverse panel of cancer cell lines including cervical adenocarcinoma (HeLa), breast adenocarcinoma (MCF7), melanoma (M233), osteosarcoma (U205), acute lymphoblastic leukemia (CCRF-CEM), non-small cell lung carcinoma (NCI-H460), and breast adenocarcinoma (MCF7) with MI-181 and determined its cell viability IC50 (FIGS. 13A and 13B). […] Therefore, the efficacy of MI-181 was analyzed in a panel of melanoma cell lines with defined genetic backgrounds including BRAF^V600E and NRAS^Q61L mutations and varied sensitivities to Vemurafenib (BRAF inhibitor) and Trametinib (MEK inhibitor), which are currently used to treat BRAF^V600E melanomas^43,44 (FIG. 10c). […] As a general trend BRAF^V600E cell lines were slightly more sensitive than NRAS^Q61L cell lines and MI-181 was effective in Vemurafenib and Trametinib resistant cell lines (FIG. 10c and Table 3). Finally, we tested the ability of MI-181 to inhibit melanoma colony formation using the M233 and M308 cell lines (both resistant to Vemurafenib). Indeed, MI-181 was a potent inhibitor of colony formation (percentage colony formation for 10 nM MI-181=0.2±0.1 and 0.8±0.7; for 10 nM colchicine=0.1±0.06 and 1.5±0.5; and for 10 nM Vemurafenib=94±7 and 102±5) (FIG. 10d). Thus, MI-181 is a potent inhibitor of melanoma cell lines.

Cc1cc2nc(/C=C/c3cccnc3)sc2cc1C [MI-181]
inhibition of microtubule (tubulin) polymerization in vitro (tubulin): inhibits tubulin polymerization | IC50 (M397): 18.1 nM | IC50 (M395): 23.4 nM | IC50 (M243): 26 nM | IC50 (M308): 28.3 nM | IC50 (M229): 36.7 nM | IC50 (M296): 36.7 nM | IC50 (M409): 41.9 nM | IC50 (M230): 42 nM | IC50 (M375): 58.2 nM | IC50 [1]: 30 to 360 nM | IC50 [2]: 18 to 90 nM | percentage colony formation (M233): 0.2±0.1
